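Results reflect a 48-hour exposure of cells in 96-well plates to compound at five concentrations. TGI is the concentration that stops growth completely.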 Where a SMILES comes first, the peptide text is derived from it. The star is where a group is joined. Boc = CC(C)(C)OC(=O)*; OBn = c1ccc(CO*)cc1
Assays:
Assay in all cases: NCI tumour cell line growth inhibition, 48 h
[1] = system: SK-MEL-5 melanoma
[2] = system: M14 melanoma
[3] = system: K-562 leukemia
[4] = system: LOX IMVI melanoma
[5] = system: NCI-H23 lung
[6] = system: MALME-3M melanoma
[7] = system: SF-295 CNS
[8] = system: NCI-H460 lung
[9] = system: OVCAR-3 ovarian
[10] = system: UO-31 renal

C=C(CC[C@@H](C(=O)O)[C@H]1[C@H](O)C[C@@]2(C)C3=CC[C@@H](C(=C)C)[C@](C)(CCC(=O)O)C3=CC[C@]12C)C(C)C
TGI [1]: 36.3 µM
TGI [2]: 32.7 µM
TGI [3]: > 100 µM
TGI [4]: 38.4 µM
TGI [5]: 31.6 µM
TGI [6]: 40.8 µM
TGI [7]: 31.4 µM
TGI [8]: 34.7 µM
TGI [9]: 33.2 µM
TGI [10]: 31.5 µM

[N-]=[N+]=CC(=O)OCC1SCCCS1
TGI [1]: > 100 µM
TGI [3]: > 100 µM
TGI [4]: > 100 µM
TGI [5]: > 100 µM
TGI [6]: > 100 µM
TGI [7]: > 100 µM
TGI [8]: > 100 µM
TGI [9]: > 100 µM
TGI [10]: > 100 µM

C=CCSC1=N/C(=C\c2ccccc2)C(=O)N1CC=C
TGI [1]: 37.3 µM
TGI [2]: > 100 µM
TGI [3]: > 100 µM
TGI [4]: > 81.3 µM
TGI [5]: > 100 µM
TGI [6]: > 100 µM
TGI [7]: > 100 µM
TGI [8]: > 100 µM
TGI [9]: > 93.9 µM
TGI [10]: > 100 µM

CN(NC(=O)CCCl)C1=NCCCCN1
TGI [1]: > 100 µM
TGI [2]: > 100 µM
TGI [3]: > 100 µM
TGI [4]: > 100 µM
TGI [5]: > 100 µM
TGI [6]: > 100 µM
TGI [7]: > 100 µM
TGI [8]: > 100 µM
TGI [9]: > 100 µM
TGI [10]: > 100 µM

CCCCc1ccc(Nc2ncc3[nH]cnc3n2)cc1
TGI [1]: 31.1 µM
TGI [2]: 38.9 µM
TGI [3]: > 100 µM
TGI [4]: 37.6 µM
TGI [5]: 35.4 µM
TGI [6]: 40.6 µM
TGI [7]: 38 µM
TGI [9]: 28.9 µM
TGI [10]: 37.9 µM

CNC(=O)c1cc(NC(=O)N(CCC#N)CCN(C(=O)N[C@@H](Cc2ccccc2)C(=O)N[C@@H](CC(C)C)C(=O)NC)c2ccccc2)ccc1OC
TGI [1]: > 69.2 µM
TGI [2]: > 100 µM
TGI [4]: > 100 µM
TGI [5]: > 100 µM
TGI [6]: 38.5 µM
TGI [7]: > 100 µM
TGI [8]: 50.9 µM
TGI [9]: > 100 µM
TGI [10]: > 100 µM

C=C(C)C(=O)[C@@]12C(=O)[C@@H](C)CC[C@H]1[C@H](C)C[C@@H]2C=C(C)C
TGI [1]: 45.1 µM
TGI [2]: > 100 µM
TGI [3]: > 100 µM
TGI [4]: 37 µM
TGI [5]: 36.3 µM
TGI [6]: 40.6 µM
TGI [7]: > 100 µM
TGI [9]: 38.5 µM
TGI [10]: 43 µM

[N-]=[N+]=NCc1cccc(Nc2cc(=O)[nH]c(=O)[nH]2)c1
TGI [1]: > 100 µM
TGI [2]: > 100 µM
TGI [3]: > 100 µM
TGI [4]: > 100 µM
TGI [5]: > 100 µM
TGI [6]: > 100 µM
TGI [7]: > 100 µM
TGI [9]: > 100 µM
TGI [10]: > 100 µM

Nc1ccccc1N/C=C\C(=O)C(Cl)(Cl)Cl
TGI [1]: > 100 µM
TGI [2]: 31.8 µM
TGI [3]: 78.9 µM
TGI [4]: 29.7 µM
TGI [5]: 59.9 µM
TGI [6]: > 100 µM
TGI [7]: 75.1 µM
TGI [8]: > 100 µM
TGI [10]: 62.6 µM

COc1ccc2c(c1)n([O-])c(C#N)c(N1CCN(c3ccc([N+](=O)[O-])cc3)CC1)[n+]2=O
TGI [1]: 19.7 µM
TGI [2]: > 100 µM
TGI [3]: > 100 µM
TGI [4]: > 28.8 µM
TGI [5]: > 100 µM
TGI [6]: 19.1 µM
TGI [7]: > 48.1 µM
TGI [8]: > 100 µM
TGI [9]: > 100 µM

O=C(c1ccccc1)c1ccc2nc(-c3c(Cl)c(Cl)c(Cl)c(Cl)c3C(=O)N/N=C/c3ccccc3)[nH]c2c1
TGI [1]: 33.4 µM
TGI [2]: > 100 µM
TGI [3]: > 100 µM
TGI [4]: > 100 µM
TGI [5]: 80.9 µM
TGI [6]: 83 µM
TGI [7]: 88.7 µM
TGI [9]: 54.3 µM
TGI [10]: > 100 µM

CC(NC(=O)C(NC(=O)OC(C)(C)C)C(C)C)C(=O)N1CCCC1C(=O)NCC(=O)NC(C(=O)NCC(=O)OCc1ccccc1)C(C)C (stereo unspecified) (Boc-VAPGVG-OBn; configuration not given here)
TGI [2]: > 100 µM
TGI [3]: > 100 µM
TGI [4]: > 100 µM
TGI [5]: > 100 µM
TGI [6]: > 100 µM
TGI [7]: > 100 µM
TGI [8]: > 100 µM
TGI [9]: > 100 µM
TGI [10]: > 100 µM

C=CCNC(=O)NC1=CSC2=NC(=O)C3(NN12)c1ccccc1-c1ccccc13
TGI [1]: > 10 µM
TGI [2]: > 10 µM
TGI [3]: > 10 µM
TGI [4]: > 10 µM
TGI [5]: > 10 µM
TGI [6]: > 10 µM
TGI [7]: > 10 µM
TGI [8]: > 10 µM
TGI [10]: > 10 µM

O=c1cc(N2CCCC2)[nH]c(=O)n1-c1cccc(C(F)(F)F)c1
TGI [2]: > 100 µM
TGI [3]: > 100 µM
TGI [4]: > 100 µM
TGI [5]: > 100 µM
TGI [6]: > 100 µM
TGI [7]: > 100 µM
TGI [8]: > 100 µM
TGI [9]: > 100 µM

CSc1c(C#N)c(=O)[nH]c2n[nH]c(C)c12
TGI [1]: > 100 µM
TGI [2]: > 100 µM
TGI [3]: > 100 µM
TGI [4]: > 100 µM
TGI [5]: > 100 µM
TGI [6]: > 100 µM
TGI [8]: > 100 µM
TGI [9]: > 100 µM
TGI [10]: > 100 µM

CC(=O)O[C@]12CCCC1C1(O)C(O)CCCC12 (stereo partly specified)
TGI [1]: > 100 µM
TGI [2]: > 100 µM
TGI [3]: > 100 µM
TGI [4]: > 100 µM
TGI [5]: > 100 µM
TGI [6]: > 100 µM
TGI [7]: > 100 µM
TGI [8]: > 100 µM
TGI [10]: > 100 µM
